Molecular target: Beta-3 Adrenergic Receptor (Homo sapiens (Human), UniProt P13945)
Test: Homogeneous Time-Resolved Fluorescence (HTRF) cAMP antagonist assay, IC50 determination
Assay type: cell-based
Settings: CHO-K1 cells stably expressing recombinant receptor, isoproterenol at EC90
Method in brief: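 Antagonist mode: isoproterenol at its predetermined EC90 added after compound to recombinant CHO-K1 cells in IBMX-containing PBS, 1 h, room temperature. Compounds tested as 5-fold, 10-point dilutions, top final typically 10 or 100 μM. HTRF signal converted to cAMP via standard curve, giving IC50.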

Beta-3 Adrenergic Receptor, sequence (P13945 whole entry, species assumed): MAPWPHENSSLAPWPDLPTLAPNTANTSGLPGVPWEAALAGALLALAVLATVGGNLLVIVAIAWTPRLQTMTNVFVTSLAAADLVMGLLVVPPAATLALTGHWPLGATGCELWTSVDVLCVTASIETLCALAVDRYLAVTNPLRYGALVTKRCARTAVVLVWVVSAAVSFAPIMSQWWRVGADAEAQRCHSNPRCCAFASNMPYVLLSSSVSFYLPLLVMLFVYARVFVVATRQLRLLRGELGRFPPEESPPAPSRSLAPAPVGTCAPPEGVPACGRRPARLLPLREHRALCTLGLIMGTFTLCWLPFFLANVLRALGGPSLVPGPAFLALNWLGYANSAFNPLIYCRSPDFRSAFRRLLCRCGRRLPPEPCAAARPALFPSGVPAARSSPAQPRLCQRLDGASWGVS

| IC50 [nM] | SMILES |
| --- | --- |
| 188 | CCNS(=O)(=O)c1cccc(OC[C@@H](O)CNC2COC3(CCN(S(=O)(=O)c4c(C)noc4C)CC3)C2)c1 (stereo partly drawn) [Compound 232, 3-((2S)-3-(8-(3,5-dimethylisoxazol-4-ylsulfonyl)-1-oxa-8-azaspiro[4.5]decan-3-ylamino)-2-hydroxypropoxy)-N-ethylbenzenesulfonamide] |
| 76.1 | CNS(=O)(=O)c1cccc(OC[C@@H](O)CN[C@@H]2COC3(CCN(S(=O)(=O)c4cccc5nsnc45)CC3)C2)c1 [Compound 244, 3-((S)-3-((S)-8-(benzo[c][1,2,5]thiadiazol-4-ylsulfonyl)-1-oxa-8-azaspiro[4.5]decan-3-ylamino)-2-hydroxypropoxy)-N-methylbenzenesulfonamide] |
| 10.3 | CNS(=O)(=O)c1cccc(OC[C@@H](O)CNC2COC3(CCN(S(=O)(=O)c4cccc(-c5ccc(OCC#N)cc5)c4)CC3)C2)c1 (stereo partly drawn) [Compound 114, 3-((2S)-3-(8-(4′-(cyanomethoxy)biphenyl-3-ylsulfonyl)-1-oxa-8-azaspiro[4.5]decan-3-ylamino)-2-hydroxypropoxy)-N-methylbenzenesulfonamide] |
| 27.7 | CNS(=O)(=O)c1cccc(OC[C@@H](O)CN[C@@H]2COC3(CCN(S(=O)(=O)c4ccc5ncccc5c4)CC3)C2)c1 [Compound 343, 3-((S)-2-hydroxy-3-((S)-8-(quinolin-6-ylsulfonyl)-1-oxa-8-azaspiro[4.5]decan-3-ylamino)propoxy)-N-methylbenzenesulfonamide] |
| 7.53 | CNS(=O)(=O)c1cccc(OC[C@@H](O)CN[C@H]2COC3(CCN(S(=O)(=O)c4ccc(Br)c(C)c4)CC3)C2)c1 [Compound 271, 3-((S)-3-((R)-8-(4-bromo-3-methylphenylsulfonyl)-1-oxa-8-azaspiro[4.5]decan-3-ylamino)-2-hydroxypropoxy)-N-methylbenzenesulfonamide] |
| 31.7 | O=S(=O)(NCCO)c1cccc(OC[C@@H](O)CNC2COC3(CCN(S(=O)(=O)c4ccc5ccccc5c4)CC3)C2)c1 (stereo partly drawn) [Compound 12, 3-((2S)-2-hydroxy-3-(8-(naphthalen-2-ylsulfonyl)-1-oxa-8-azaspiro[4.5]decan-3-ylamino)propoxy)-N-(2-hydroxyethyl)benzenesulfonamide] |
| 42.1 | C[C@H](CO)NS(=O)(=O)c1cccc(OC[C@@H](O)CNC2COC3(CCN(S(=O)(=O)c4ccc5ccccc5c4)CC3)C2)c1 (stereo partly drawn) [Compound 96, 3-((2S)-2-hydroxy-3-(8-(naphthalen-2-ylsulfonyl)-1-oxa-8-azaspiro[4.5]decan-3-ylamino)propoxy)-N—((R)-1-hydroxypropan-2-yl)benzenesulfonamide] |
| 20.8 | CNS(=O)(=O)c1cccc(OC[C@@H](O)CNC2COC3(CCN(S(=O)(=O)c4ccc(OC)cc4)CC3)C2)c1 (stereo partly drawn) [Compound 18, 3-((2S)-2-hydroxy-3-(8-(4-methoxyphenylsulfonyl)-1-oxa-8-azaspiro[4.5]decan-3-ylamino)propoxy)-N-methylbenzenesulfonamide] |
| 8.51 | CNS(=O)(=O)c1cccc(OC[C@@H](O)CNC2COC3(CCN(S(=O)(=O)c4ccc5c(c4)N(C)CCO5)CC3)C2)c1 (stereo partly drawn) [Compound 189, 3-((2S)-2-hydroxy-3-(8-(4-methyl-3,4-dihydro-2H-benzo[b][1,4]oxazin-6-ylsulfonyl)-1-oxa-8-azaspiro[4.5]decan-3-ylamino)propoxy)-N-methylbenzenesulfonamide] |
| 22.1 | CNS(=O)(=O)c1cccc(OC[C@@H](O)CN[C@@H]2COC3(CCN(S(=O)(=O)c4cccc(-c5ccc(CNCCC(C)C)cc5)c4)CC3)C2)c1 [Compound 361, 3-((S)-2-hydroxy-3-((S)-8-(4′-((isopentylamino)methyl)biphenyl-3-ylsulfonyl)-1-oxa-8-azaspiro[4.5]decan-3-ylamino)propoxy)-N-methylbenzenesulfonamide] |

More lines, now with the values behind:

| SMILES | IC50 [nM] |
| --- | --- |
| CNS(=O)(=O)c1cccc(OC[C@@H](O)CN[C@H]2COC3(CCN(S(=O)(=O)c4cnc5c(c4)N(C)C[C@@H](C)O5)CC3)C2)c1 [Compound 468, 3-((S)-3-((R)-8-((R)-1,3-dimethyl-2,3-dihydro-1H-pyrido[2,3-b][1,4]oxazin-7-ylsulfonyl)-1-oxa-8-azaspiro[4.5]decan-3-ylamino)-2-hydroxypropoxy)-N-methylbenzenesulfonamide] | 31.1 |
| CNS(=O)(=O)c1cccc(OC[C@@H](O)CNC2COC3(CCN(S(=O)(=O)c4ccc(Oc5ccccc5)nc4)CC3)C2)c1 (stereo partly drawn) [Compound 130, 3-((2S)-2-hydroxy-3-(8-(6-phenoxypyridin-3-ylsulfonyl)-1-oxa-8-azaspiro[4.5]decan-3-ylamino)propoxy)-N-methylbenzenesulfonamide] | 8.32 |
| CNS(=O)(=O)c1cccc(OC[C@@H](O)CNC2COC3(CCN(S(=O)(=O)c4ccc(OC)c(C)c4)CC3)C2)c1 (stereo partly drawn) [Compound 147, 3-((2S)-2-hydroxy-3-(8-(4-methoxy-3-methylphenylsulfonyl)-1-oxa-8-azaspiro[4.5]decan-3-ylamino)propoxy)-N-methylbenzenesulfonamide] | 13 |
| CNS(=O)(=O)c1cccc(OC[C@@H](O)CNC2COC3(CCN(S(=O)(=O)c4ccc(CN)cc4)CC3)C2)c1 (stereo partly drawn) [Compound 391, 3-((2S)-3-(8-(4-(aminomethyl)phenylsulfonyl)-1-oxa-8-azaspiro[4.5]decan-3-ylamino)-2-hydroxypropoxy)-N-methylbenzenesulfonamide] | 446 |
| CC(C)NS(=O)(=O)c1cccc(OC[C@@H](O)CNC2COC3(CCN(S(=O)(=O)c4ccc5ccccc5c4)CC3)C2)c1 (stereo partly drawn) [Compound 6, 3-((2S)-2-hydroxy-3-(8-(naphthalen-2-ylsulfonyl)-1-oxa-8-azaspiro[4.5]decan-3-ylamino)propoxy)-N-isopropylbenzenesulfonamide] | 24.3 |
| O=S(=O)(NCCF)c1cccc(OC[C@@H](O)CN[C@H]2COC3(CCN(S(=O)(=O)c4ccc5ncccc5c4)CC3)C2)c1 [Compound 393, N-(2-fluoroethyl)-3-((S)-2-hydroxy-3-((R)-8-(quinolin-6-ylsulfonyl)-1-oxa-8-azaspiro[4.5]decan-3-ylamino)propoxy)benzenesulfonamide] | 141 |
| CNS(=O)(=O)c1cccc(OC[C@@H](O)CNC2COC3(CCN(S(=O)(=O)c4cccc5ccccc45)CC3)C2)c1 (stereo partly drawn) [Compound 55, 3-((2S)-2-hydroxy-3-(8-(naphthalen-1-ylsulfonyl)-1-oxa-8-azaspiro[4.5]decan-3-ylamino)propoxy)-N-methylbenzenesulfonamide] | 18 |
| CC(C)(CO)NS(=O)(=O)c1cccc(OC[C@@H](O)CNC2COC3(CCN(S(=O)(=O)c4ccc5ccccc5c4)CC3)C2)c1 (stereo partly drawn) [Compound 49, N-(1-hydroxy-2-methylpropan-2-yl)-3-((2S)-2-hydroxy-3-(8-(naphthalen-2-ylsulfonyl)-1-oxa-8-azaspiro[4.5]decan-3-ylamino)propoxy)benzenesulfonamide] | 107 |
| CCn1ncc(S(=O)(=O)N2CCC3(CC2)CC(NC[C@H](O)COc2cccc(S(=O)(=O)NC)c2)CO3)c1C (stereo partly drawn) [Compound 329, 3-((2S)-3-(8-(1-ethyl-5-methyl-1H-pyrazol-4-ylsulfonyl)-1-oxa-8-azaspiro[4.5]decan-3-ylamino)-2-hydroxypropoxy)-N-methylbenzenesulfonamide] | 156 |
| CNS(=O)(=O)c1cccc(OC[C@@H](O)CNC2COC3(CCN(S(=O)(=O)c4cccc(Br)c4)CC3)C2)c1 (stereo partly drawn) [Compound 20, 3-((2S)-3-(8-(3-bromophenylsulfonyl)-1-oxa-8-azaspiro[4.5]decan-3-ylamino)-2-hydroxypropoxy)-N-methylbenzenesulfonamide] | 13.2 |

— patent publication US11987588B2, “Modulators of the beta-3 adrenergic receptor useful for the treatment or prevention of heart failure and disorders related thereto” (Arena Pharmaceuticals, Inc., priority 2017, dated 2024)
